Test results as given in ChEMBL document CHEMBL1201862, “PubChem BioAssay data set” (2004).
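The compound was tested at five concentrations on cells cultured in 96-well plates, with a 48-hour exposure period. Here, GI50 denotes the concentration required for 50% inhibition of growth.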 Active and inactive are the calls of the source. Rule as the data show it: active = GI50 up to about 1.1 µM and inactive = higher.

What was measured:
Assay in all cases: inhibition of tumour cell growth, NCI panel, 48 h
ACHN = tested on: ACHN
BT-549 = tested on: BT-549
CAKI-1 = tested on: CAKI-1
EKVX = tested on: EKVX
HCC 2998 = tested on: HCC 2998
HCT-15 = tested on: HCT-15
HL-60 = tested on: HL-60
M14 = tested on: M14
MOLT-4 = tested on: MOLT-4
NCI-H460 = tested on: NCI-H460
NCI-H522 = tested on: NCI-H522
NCI/ADR-RES = tested on: NCI/ADR-RES
OVCAR-4 = tested on: OVCAR-4
OVCAR-8 = tested on: OVCAR-8
RXF 393 = tested on: RXF 393
SF-539 = tested on: SF-539
SNB-19 = tested on: SNB-19
T47D = tested on: T47D
TK-10 = tested on: TK-10
UACC-257 = tested on: UACC-257

SMILES | GI50 (ACHN) | GI50 (BT-549) | GI50 (CAKI-1) | GI50 (EKVX) | GI50 (HCC 2998) | GI50 (HCT-15) [µM] | GI50 (HL-60) | GI50 (M14) | GI50 (MOLT-4) | GI50 (NCI-H460) | GI50 (NCI-H522) | GI50 (NCI/ADR-RES) | GI50 (OVCAR-4) | GI50 (OVCAR-8) | GI50 (RXF 393) | GI50 (SF-539) | GI50 (SNB-19) | GI50 (T47D) | GI50 (TK-10) | GI50 (UACC-257)
c1cnc(N2CCN(Cc3c[nH]c4ccccc34)CC2)nc1 | 27.8 µM (inactive) | 42.1 µM (inactive) | 28.2 µM (inactive) | 85.3 µM (inactive) | 18.6 µM (inactive) | 72.9 | 51.6 µM (inactive) | 45.4 µM (inactive) | 36.6 µM (inactive) | 31.3 µM (inactive) | > 100 µM (inactive) | 52.8 µM (inactive) | 52 µM (inactive) | 95.9 µM (inactive) | 41.9 µM (inactive) | 25.6 µM (inactive) | > 100 µM (inactive) | 22.6 µM (inactive) | 22.9 µM (inactive) | 28.8 µM (inactive)
Cn1c2ccccc2c2ccc3c(c21)C(=O)C=CC3=O | 3.52 µM (inactive) | 6.98 µM (inactive) | 4.33 µM (inactive) | 19.4 µM (inactive) | 10.3 µM (inactive) | 4.56 | 0.738 µM (active) | 8.65 µM (inactive) | 0.755 µM (active) | 16.9 µM (inactive) | 2.96 µM (inactive) | 5.16 µM (inactive) | 1.82 µM (inactive) | 7.03 µM (inactive) | 2.47 µM (inactive) | 11.5 µM (inactive) | 26.5 µM (inactive) | 3.27 µM (inactive) | 3.88 µM (inactive) | 9.48 µM (inactive)
COc1ccc(/C=C2\N=C3N(Cc4ccccc4)C=C(N)N3C2=O)cc1 | > 100 µM (inactive) | 32.9 µM (inactive) | > 100 µM (inactive) | 59.4 µM (inactive) | > 100 µM (inactive) | > 100 | 55 µM (inactive) | > 100 µM (inactive) | > 100 µM (inactive) | > 100 µM (inactive) | 49.1 µM (inactive) | > 100 µM (inactive) | > 100 µM (inactive) | 64.6 µM (inactive) | > 100 µM (inactive) | > 100 µM (inactive) | 20.8 µM (inactive) | > 100 µM (inactive) | > 100 µM (inactive) | 30.8 µM (inactive)
COc1ccc(-c2cc(C(O)C3CCCCN3)c3ccccc3n2)cc1 (stereo not given) | 11.9 µM (inactive) | 15.9 µM (inactive) | 5.86 µM (inactive) | 6.92 µM (inactive) | 2.19 µM (inactive) | 14.2 | 11.1 µM (inactive) | 2.14 µM (inactive) | 3.59 µM (inactive) | 3.05 µM (inactive) | 7.05 µM (inactive) | 16.7 µM (inactive) | 13.7 µM (inactive) | 13.7 µM (inactive) | 4.58 µM (inactive) | 10.1 µM (inactive) | 13.7 µM (inactive) | 4 µM (inactive) | 10.4 µM (inactive) | 2.15 µM (inactive)
Clc1ncc(C(Cl)(Cl)Cl)nc1-c1ccccc1 | 1.68 µM (inactive) | 1.65 µM (inactive) | 2.2 µM (inactive) | 2.29 µM (inactive) | 1.52 µM (inactive) | 1.21 | 2.7 µM (inactive) | 2.23 µM (inactive) | 4.75 µM (inactive) | 3.01 µM (inactive) | 2.52 µM (inactive) | 4.07 µM (inactive) | 4.04 µM (inactive) | 2.57 µM (inactive) | 1.64 µM (inactive) | 2.63 µM (inactive) | 1.69 µM (inactive) | 1.96 µM (inactive) | 2.3 µM (inactive) | 2.14 µM (inactive)
COc1ccc(N2C(=O)C3c4[nH]c5ccc(OCc6ccccc6)cc5c4C4CCC(C(C)(C)C)CC4C3C2=O)cc1 (stereo not given) | > 100 µM (inactive) | > 100 µM (inactive) | > 100 µM (inactive) | > 100 µM (inactive) | > 100 µM (inactive) | > 100 | > 100 µM (inactive) | 78.7 µM (inactive) | > 100 µM (inactive) | > 100 µM (inactive) | > 100 µM (inactive) | 63.5 µM (inactive) | 29.8 µM (inactive) | 46.3 µM (inactive) | > 100 µM (inactive) | 46 µM (inactive) | > 100 µM (inactive) | 17.5 µM (inactive) | 54.5 µM (inactive) | > 100 µM (inactive)
CC(C(=O)[O-])S(=O)(=O)O.CCc1c2cc(OC)c(OC)cc2cc2c3cc(OC)c(OC)cc3cc[n+]12 | 58.9 µM (inactive) | 3.81 µM (inactive) | 60.4 µM (inactive) | 67.6 µM (inactive) | 15 µM (inactive) | 38.4 | 20.8 µM (inactive) | 51.1 µM (inactive) | 20.4 µM (inactive) | 42.4 µM (inactive) | 3.09 µM (inactive) | 38.1 µM (inactive) | 10.2 µM (inactive) | 20 µM (inactive) | 65.2 µM (inactive) | 9.77 µM (inactive) | 3.94 µM (inactive) | 5.11 µM (inactive) | 69.7 µM (inactive) | 13.3 µM (inactive)
CCOC(=O)CCC(C(=O)OCC)n1nc2ccc(Nc3c(C)[n+]([O-])c4ccc(Cl)cc4[n+]3[O-])cc2n1 (stereo not given) | 15.8 µM (inactive) | 28.1 µM (inactive) | 33.1 µM (inactive) | 17.5 µM (inactive) | 2.93 µM (inactive) | 17.6 | 38.2 µM (inactive) | 24.1 µM (inactive) | 27.9 µM (inactive) | 17 µM (inactive) | 30.1 µM (inactive) | 18.8 µM (inactive) | 28.8 µM (inactive) | 21.5 µM (inactive) | 13 µM (inactive) | 20.7 µM (inactive) | 30.1 µM (inactive) | 21.7 µM (inactive) | 28.9 µM (inactive) | 24.5 µM (inactive)
Cc1ccc(C(=O)c2[nH]c(Nc3ccc(Cl)cc3)c(C(=S)Nc3ccccc3)c2N)cc1 | 3.27 µM (inactive) | 8.04 µM (inactive) | 8.67 µM (inactive) | 5.48 µM (inactive) | 2.29 µM (inactive) | 10.7 | 44.4 µM (inactive) | 12.9 µM (inactive) | 12.1 µM (inactive) | 4.2 µM (inactive) | 9.68 µM (inactive) | 4.37 µM (inactive) | 1.97 µM (inactive) | 4.68 µM (inactive) | 4.94 µM (inactive) | 5.3 µM (inactive) | 5.61 µM (inactive) | 15.5 µM (inactive) | 5.36 µM (inactive) | 18.7 µM (inactive)
N#Cc1nc(CCc2nc(C#N)c(N)o2)oc1N | > 10 µM (inactive) | > 10 µM (inactive) | > 10 µM (inactive) | > 10 µM (inactive) | > 10 µM (inactive) | > 10 | > 10 µM (inactive) | > 10 µM (inactive) | > 10 µM (inactive) | > 10 µM (inactive) | > 10 µM (inactive) | > 10 µM (inactive) | > 10 µM (inactive) | > 10 µM (inactive) | > 10 µM (inactive) | > 10 µM (inactive) | > 10 µM (inactive) | > 10 µM (inactive) | > 10 µM (inactive) | > 10 µM (inactive)
C[C@@H](CC(O)C(O)C(C)(C)O)C1CCC23CC12CCC1[C@@]2(C)CCC(O)C(C)(C)C2CC(OC2OC(CO)C(O)C(O)C2O)[C@]13C (stereo not given in full) | > 10 µM (inactive) | > 10 µM (inactive) | > 10 µM (inactive) | > 10 µM (inactive) | > 10 µM (inactive) | > 10 | > 10 µM (inactive) | > 10 µM (inactive) | > 10 µM (inactive) | > 10 µM (inactive) | > 10 µM (inactive) | > 10 µM (inactive) | > 10 µM (inactive) | > 10 µM (inactive) | > 10 µM (inactive) | > 10 µM (inactive) | > 10 µM (inactive) | > 10 µM (inactive) | > 10 µM (inactive) | > 10 µM (inactive)
CC1(C)N=C(N)N=C(N)N1c1ccc(Cl)cc1 | 5.16 µM (inactive) | 26.2 µM (inactive) | 19.1 µM (inactive) | 26.7 µM (inactive) | 9.02 µM (inactive) | 7.11 | 15.4 µM (inactive) | 4.88 µM (inactive) | 1.71 µM (inactive) | 3.38 µM (inactive) | 3.99 µM (inactive) | > 100 µM (inactive) | > 100 µM (inactive) | 0.817 µM (active) | 53.2 µM (inactive) | 4.42 µM (inactive) | 22.6 µM (inactive) | 35.1 µM (inactive) | 48.8 µM (inactive) | 26.5 µM (inactive)
